What all share (assay): In vitro anti-tumor activity of molecular glue compounds, CellTiter-Lumi cell viability assay
Format in all cases: cell-based

The test system of one experiment is HL-60. The note with it: Homo sapiens; HL-60 cells, 96 h incubation; read-out: Cell inhibitory activity (IC50 values) HL-60. The protocol:
(§1) Different tumor cells were all commercially available and used for evaluating the anti-tumor inhibitory activity of the compounds of the present disclosure. Various tumor cells were cultured until the cell confluency reached 80%-90%, with cell viability above 90% as determined by trypan blue exclusion. Then, the cells were plated. Specifically, after cell density optimization, 100 µL of each of the cell suspensions of HL-60 and SK-BR-3 cells (cell density: 3000 cells/well), Romas cells (cell density: 6000 cells/well), NCI-H929 cells (cell density: 4000 cells/well), and NCI-H82 cells (cell density: 5000 cells/well) was plated in a BeyoGold™ ultra-low attachment black clear-bottom 96-well plate (Cat. No.: FULA965-24pcs), and the plate was incubated overnight. The next day, after the adherent cells were adhered to the wall and suspension cells requiring aggregation were aggregated, 50 µL of culture medium was aspirated from each well of the 96-well plate. Then, the compounds diluted with the corresponding culture media were added. Specifically, the compounds were serially diluted at a 5-fold gradient starting from the highest concentration of 1 µM, with a final DMSO concentration of 1%o, and the test compounds were then added to the cell culture plate. The plate was incubated in an incubator at 37 °C with 5% carbon dioxide for 96 h. Before measurement, the CellTiter-Lumi™ luminescent cell viability assay reagent was equilibrated to room temperature in the dark. Then, 50 µL of the CellTiter-Lumi™ (Cat. No.: C0065XL) cell viability assay reagent was added to each well of the 96-well plate. The plate was shaken in the dark on a shaker at 300 rpm for 10 min to ensure complete cell lysis. After the reaction was completed, the luminescence was measured on a multi-mode microplate reader. The cell inhibition rate was determined according to the luminescence. Then, a cell viability curve was generated by Graphpad Prism 8.0, and the IC50 values were calculated. The compounds of the present disclosure were tested for activity by the method described above. Table 1. Cell inhibitory activity (IC50 values)

Another experiment deals with Romas. The note with it: Romas cells, 96 h incubation; read-out: Cell inhibitory activity (IC50 values) Romas. The protocol: as §1
The next experiment has as its system NCI-H82. The note with it: Homo sapiens; NCI-H82 cells, 96 h incubation; read-out: Cell inhibitory activity (IC50 values) NCI-H82. How it is done:
as §1

Another experiment has as its system SK-BR-3. Conditions: Homo sapiens; SK-BR-3 cells, 96 h incubation; read-out: Cell inhibitory activity (IC50 values) SK-BR-3. How it is done:
as §1

The subject of a further experiment is NCI-H929. Conditions: Homo sapiens; NCI-H929 cells, 96 h incubation; read-out: Cell inhibitory activity (IC50 values) NCI-H929. The protocol:
as §1

These results are taken from EP4667463A1, “DOMIDE MOLECULAR GLUE DERIVATIVE AND USE THEREOF” (CSPC Megalith Biopharmaceutical Co., Ltd., priority 2023, dated 2024).

pIC50: −log10 of the molar value.

For `O=C1CCC(N2Cc3cc(CNC(=O)Nc4ccc(COC5CCCNC5)c(Cl)c4)ccc3C2=O)C(=O)N1` (stereo not shown) [Compound B7], the pIC50 in the experiment on HL-60, in the experiment on Romas, in the experiment with NCI-H82, in the experiment with SK-BR-3 and in the experiment on NCI-H929 was 7.30 to 8.00 in each case.

`O=C1CCC(N2Cc3cc(CNC(=O)Nc4ccc(COCC5CCCNC5)c(Cl)c4)ccc3C2=O)C(=O)N1` (stereo not shown) [Compound B8]: the pIC50 in the experiment with HL-60, in the experiment on Romas, in the experiment with NCI-H82, in the experiment on SK-BR-3 and with NCI-H929 was 7.30 to 8.00 each time.

Consider `O=C1CCC(N2Cc3cc(CNC(=O)Nc4ccc(COCCC5CCCNC5)c(Cl)c4)ccc3C2=O)C(=O)N1` (stereo not shown) [Compound B9], for which the pIC50 with HL-60 is > 8.00; with Romas, 7.30 to 8.00; with NCI-H82, 7.30 to 8.00; in the experiment with SK-BR-3, 7.30 to 8.00; in the experiment with NCI-H929, > 8.00.

For the compound `O=C1CCC(N2Cc3cc(CNC(=O)Nc4ccc(COCCCC5CCCNC5)c(Cl)c4)ccc3C2=O)C(=O)N1` (stereo not shown) [Compound B10], the pIC50 with HL-60 was 7.30 to 8.00; with Romas, 7.30 to 8.00; with NCI-H82, < 7.00; with SK-BR-3 it was 7.30 to 8.00; with NCI-H929 it was > 8.00.

Regarding `O=C1CCC(N2Cc3cc(CNC(=O)Nc4ccc(CCOC5CCCNC5)c(Cl)c4)ccc3C2=O)C(=O)N1` (stereo not shown) [Compound B13], the pIC50 was > 8.00 in the experiment on HL-60; 7.30 to 8.00 in the experiment on Romas; 7.30 to 8.00 in the experiment with NCI-H82; 7.30 to 8.00 in the experiment on SK-BR-3; > 8.00 in the experiment on NCI-H929.

For `O=C1CCC(N2Cc3cc(CNC(=O)Nc4ccc(CCOCC5CCCNC5)c(Cl)c4)ccc3C2=O)C(=O)N1` (stereo not shown) [Compound B14], the pIC50 with HL-60 was > 8.00; with Romas, > 8.00; in the experiment on NCI-H82, 7.30 to 8.00; in the experiment on SK-BR-3 it was 7.30 to 8.00; in the experiment on NCI-H929, > 8.00.

In the case of `O=C1CCC(N2Cc3cc(CNC(=O)Nc4ccc(CCOCCC5CCCNC5)c(Cl)c4)ccc3C2=O)C(=O)N1` (stereo not shown) [Compound B15], the pIC50 is > 8.00 in the experiment on HL-60; 7.30 to 8.00 in the experiment on Romas; < 7.00 in the experiment with NCI-H82; 7.30 to 8.00 in the experiment on SK-BR-3; 7.30 to 8.00 in the experiment on NCI-H929.

As for `O=C1CCC(N2Cc3cc(CNC(=O)Nc4ccc(CCCOCC5CCCNC5)c(Cl)c4)ccc3C2=O)C(=O)N1` (stereo not shown) [Compound B20], the pIC50 with HL-60 was > 8.00; in the experiment with Romas, > 8.00; in the experiment on NCI-H82, 7.30 to 8.00; in the experiment with SK-BR-3, > 8.00; in the experiment with NCI-H929 it was > 8.00.

Take `O=C1CCC(N2Cc3cc(CNC(=O)Nc4ccc(CCCOCCC5CCCNC5)c(Cl)c4)ccc3C2=O)C(=O)N1` (stereo not shown) [Compound B21]: the pIC50 with HL-60 is > 8.00; with Romas it was 7.30 to 8.00; in the experiment with NCI-H82 it was < 7.00; with SK-BR-3, 7.30 to 8.00; in the experiment with NCI-H929 it was 7.30 to 8.00.

With `O=C1CCC(N2Cc3cc(CNC(=O)Nc4ccc(CCCCOC5CCCNC5)c(Cl)c4)ccc3C2=O)C(=O)N1` (stereo not shown) [Compound B25], the negative-log IC50 (pIC50) in the experiment with HL-60 was > 8.00; in the experiment with Romas, > 8.00; in the experiment on NCI-H82, 7.30 to 8.00; in the experiment with SK-BR-3, > 8.00; with NCI-H929 it was > 8.00.

With `CNC1CCCC(OCCc2ccc(NC(=O)NCc3ccc4c(c3)CN(C3CCC(=O)NC3=O)C4=O)cc2Cl)C1` (stereo not shown) [Compound B43], the pIC50 in the experiment on HL-60 is > 8.00; in the experiment with Romas it was > 8.00; in the experiment on NCI-H82 it was 7.30 to 8.00; in the experiment on SK-BR-3, > 8.00; in the experiment with NCI-H929, > 8.00.

`CNC1COCC(OCCc2ccc(NC(=O)NCc3ccc4c(c3)CN(C3CCC(=O)NC3=O)C4=O)cc2Cl)C1` (stereo not shown) [Compound B44]: the pIC50 in the experiment with HL-60 was > 8.00; with Romas, > 8.00; in the experiment on NCI-H82, 7.30 to 8.00; in the experiment with SK-BR-3 it was > 8.00; in the experiment on NCI-H929, > 8.00.

For `CNCC1(COCCc2ccc(NC(=O)NCc3ccc4c(c3)CN(C3CCC(=O)NC3=O)C4=O)cc2Cl)CCCCC1` (stereo not shown) [Compound B45], the pIC50 with HL-60 is > 8.00; with Romas, > 8.00; in the experiment on NCI-H82, 7.30 to 8.00; in the experiment on SK-BR-3, > 8.00; in the experiment on NCI-H929, > 8.00.

For the compound `O=C1CCC(N2Cc3cc(CNC(=O)Nc4ccc(CCOCCNC5CCCCC5)c(Cl)c4)ccc3C2=O)C(=O)N1` (stereo not shown) [Compound B46], the pIC50 was > 8.00 with HL-60; 7.00 to 7.30 in the experiment on Romas; < 7.00 with NCI-H82; 7.00 to 7.30 with SK-BR-3; 7.30 to 8.00 with NCI-H929.

Take `O=C1CCC(N2Cc3cc(CNC(=O)Nc4ccc(CCOCCNC5CC5)c(Cl)c4)ccc3C2=O)C(=O)N1` (stereo not shown) [Compound B47]: the pIC50 is 7.30 to 8.00 in the experiment on HL-60; < 7.00 in the experiment on Romas; < 7.00 in the experiment on NCI-H82; < 7.00 in the experiment with SK-BR-3; 7.30 to 8.00 in the experiment on NCI-H929.

For `O=C1CCC(N2Cc3cc(CNC(=O)Nc4ccc(CCOCCNC5CCOCC5)c(Cl)c4)ccc3C2=O)C(=O)N1` (stereo not shown) [Compound B48], the pIC50 is > 8.00 in the experiment on HL-60; 7.00 to 7.30 in the experiment with Romas; < 7.00 in the experiment with NCI-H82; 7.00 to 7.30 with SK-BR-3; 7.30 to 8.00 with NCI-H929.

Take `CNCCOCCC1(c2ccc(NC(=O)NCc3ccc4c(c3)CN(C3CCC(=O)NC3=O)C4=O)cc2Cl)CCCCC1` (stereo not shown) [Compound B51]: the pIC50 with HL-60 was 7.30 to 8.00; in the experiment with Romas, 7.00 to 7.30; in the experiment on NCI-H82 it was < 7.00; in the experiment with SK-BR-3, 7.00 to 7.30; with NCI-H929, 7.30 to 8.00.

As to `O=C1CCC(N2Cc3cc(CNC(=O)Nc4ccc(CCOCC5CNCCO5)c(Cl)c4)ccc3C2=O)C(=O)N1` (stereo not shown) [Compound B53], the pIC50 with HL-60 is > 8.00; in the experiment on Romas, > 8.00; in the experiment with NCI-H82, 7.30 to 8.00; in the experiment with SK-BR-3 it was > 8.00; in the experiment on NCI-H929 it was > 8.00.

As to `CNCC1CCCC(OCCc2ccc(NC(=O)NCc3ccc4c(c3)CN(C3CCC(=O)NC3=O)C4=O)cc2Cl)C1` (stereo not shown) [Compound B54], the pIC50 with HL-60 is > 8.00; with Romas, 7.30 to 8.00; with NCI-H82, 7.30 to 8.00; in the experiment with SK-BR-3 it was 7.30 to 8.00; with NCI-H929, > 8.00.

`O=C1CCC(N2Cc3cc(CNC(=O)Nc4ccc(CCCOC5CCNC5)c(Cl)c4)ccc3C2=O)C(=O)N1` (stereo not shown) [Compound B64]: the pIC50 in the experiment on HL-60 is > 8.00; in the experiment on Romas it was > 8.00; in the experiment on NCI-H82, 7.30 to 8.00; in the experiment on SK-BR-3, > 8.00; in the experiment with NCI-H929 it was > 8.00.

Consider `O=C1CCC(N2Cc3cc(CNC(=O)Nc4ccc(CCCOCC5CCCN5)c(Cl)c4)ccc3C2=O)C(=O)N1` (stereo not shown) [Compound B65], for which the pIC50 with HL-60 was > 8.00; in the experiment on Romas, > 8.00; in the experiment on NCI-H82, 7.30 to 8.00; in the experiment with SK-BR-3 it was > 8.00; in the experiment on NCI-H929, > 8.00.

Regarding `CC1(OCCCc2ccc(NC(=O)NCc3ccc4c(c3)CN(C3CCC(=O)NC3=O)C4=O)cc2Cl)CCNCC1` (stereo not shown) [Compound B66], the pIC50 with HL-60 was > 8.00; in the experiment with Romas it was > 8.00; in the experiment with NCI-H82, 7.30 to 8.00; in the experiment on SK-BR-3 it was > 8.00; with NCI-H929 it was > 8.00.

For the compound `CC1(OCCCc2ccc(NC(=O)NCc3ccc4c(c3)CN(C3CCC(=O)NC3=O)C4=O)cc2Cl)CCCNC1` (stereo not shown) [Compound B67], the pIC50 in the experiment with HL-60 is > 8.00; in the experiment with Romas, > 8.00; in the experiment with NCI-H82, 7.30 to 8.00; with SK-BR-3, > 8.00; in the experiment with NCI-H929, > 8.00.

Usually pIC50 stands for the negative decadic logarithm of the IC50, by convention in mol/L.
